Assay results as given in US20250325526A1, “USE OF TETRAHYDRONAPHTHYRIDINE DERIVATIVE FOR PREPARING PRODUCT FOR IMPROVING HYPERPIGMENTATION” (SCINNOHUB PHARMACEUTICAL CO., LTD, priority 2022, published 2025).

Key:
Format in all cases: in vivo, SD rats
melanin granules = assay: Rat melasma model: Fontana-Masson staining of melanin granules; conditions: for distribution of melanin granules: skin collected Day 58, tranexamic acid 5 mg/mL; for melanin granules in the skin tissue: skin collected Day 58, vs model group, tranexamic acid 5 mg/mL
Description: 3.3 Detection of indicators: The first day of modeling was denoted as Day 1, and the experimental period lasted for 58 days. […] Then the rats in each group were euthanized, their backs were depilated, and 0.5 g of full-thickness skin tissue from the depilated back was taken and placed into an ice bath, and normal saline was added to make a 10% tissue homogenate. The homogenate was centrifuged at 3000 r/min at room temperature for 10 min to obtain a supernatant of skin tissue homogenate. ELISA was carried out to detect the expression of endothelin-1 in the supernatant of skin tissue homogenate. The skin of the modeling area on the back of rats was taken and immersed in 10% neutral formaldehyde for fixation at room temperature for 4 days. Four days later (Day 62), paraffin embedding and sectioning were performed to obtain paraffin sections of skin. The HE staining was performed to observe the pathological changes of the skin tissues of rats in each group. Staining method: The dried paraffin sections were conventionally dewaxed with xylene, hydrated with descending gradient ethanol, and washed with distilled water; the nuclei were stained with hematoxylin for 2 minutes, differentiated with hydrochloric acid and alcohol for a few seconds, and washed with water to return to blue; the sections were stained with eosin stain for 1 minute, and the residual stain was washed with water; the sections were dehydrated and dried with gradient alcohol, transparentized with xylene, and blocked with neutral gum, then observed under microscope. The epidermal hyperplasia of the skin tissue sample sections, arrangement of basal cells, presence or absence of inflammatory cell infiltration in the dermis, and changes in the number of capillaries in all groups were observed according to the evaluation indexes. Fontana-Masson staining was performed to observe the skin pigmentation of the rats. […] An immunohistochemistrical assay was performed to detect the expression of tyrosinase in the skin in each group.

tyrosinase = assay: Rat melasma model: immunohistochemical staining of tyrosinase in skin; conditions: for tyrosinase positive rate in the skin tissues: immunohistochemistry, skin collected Day 58, vs model group, P<0.001; for tyrosinase expression in the skin tissues: vs model group, P<0.01
Description: (§1) 3.1 Modeling: Before the experiment, on Day 0, SD rats (purchased from Beijing Vital River Experimental Animal Technology Co., Ltd., SPF grade, female, 7-8 weeks old, weighing 200±20 g) were randomly grouped and numbered. The hairs on the backs of animals in each group were shaved using an electric shaver, and the short hairs on the skin were removed with a depilatory cream to fully expose the back skin. The hair removal area was slightly larger than the actual modeling area (5 cm×5 cm). Each rat was depilated once every 2-3 days to ensure that the back skin was fully exposed. On the next day (Day 1), rats in each group were weighed, and the weights were recorded when the electronic scale reading was stable. A progesterone injection was injected intramuscularly at the base of the rat's thigh (alternately between the thighs on both sides), with a drug concentration of 20 mg/mL and an injection dose of 25 mg/kg, once a day. After the intramuscular injection, the rat's back skin was irradiated with ultraviolet light at a wavelength of 280-320 nm. The light source was about 30 cm away from the rat's back skin, and the irradiation time lasted for 60 minutes each time, for a total of 4 weeks.
The injection volume was 0.05 mL/cm^2, 5 days each time, and the administration lasted for 30 days continuously. The animals in the control group (only depilated, without modeling) and the model group were given the solvent.
3.3 Detection of indicators: The first day of modeling was denoted as Day 1, and the experimental period lasted for 58 days. After the end of the experiment (Day 58), 1 hour after the last administration, the skin of the modeling area of the rats in each group was photographed for scoring of apparent indexes (scoring criteria was provided in Table 1). Then the rats in each group were euthanized, their backs were depilated, and 0.5 g of full-thickness skin tissue from the depilated back was taken and placed into an ice bath, and normal saline was added to make a 10% tissue homogenate. The homogenate was centrifuged at 3000 r/min at room temperature for 10 min to obtain a supernatant of skin tissue homogenate. ELISA was carried out to detect the expression of endothelin-1 in the supernatant of skin tissue homogenate. The skin of the modeling area on the back of rats was taken and immersed in 10% neutral formaldehyde for fixation at room temperature for 4 days. Four days later (Day 62), paraffin embedding and sectioning were performed to obtain paraffin sections of skin. The HE staining was performed to observe the pathological changes of the skin tissues of rats in each group. […]

rat models of melasma [1] = assay: Rat melasma model (UVB irradiation + progesterone): apparent indexes, lesion color and area; conditions: Day 58, vs model group, P<0.05; local injection; tranexamic acid 5 mg/mL; compounds under test 5 mg/mL and 1.5 mg/mL
Description: as §1
(§2) The injection volume was 0.05 mL/cm^2, 5 days each time, and the administration lasted for 30 days continuously. […]

rat models of melasma [2] = assay: Rat melasma model: HE staining of skin tissues; conditions: vs model group, tranexamic acid 5 mg/mL, compounds under test 5 mg/mL and 1.5 mg/mL
Description: as §1, §2

endothelin-1 = assay: Rat melasma model: ELISA of ET-1 in supernatant of skin tissue homogenate; conditions: Day 58, vs model group, P<0.01, tranexamic acid 5 mg/mL, compounds under test 5 mg/mL and 1.5 mg/mL
Description: as §1, §2

Compound | distribution of melanin granules (melanin granules) | melanin granules in the skin tissue (melanin granules) | tyrosinase positive rate in the skin tissues (tyrosinase) | tyrosinase expression in the skin tissues (tyrosinase; 1.5 mg/mL group) | tyrosinase expression in the skin tissues (tyrosinase; 5 mg/mL group) | color of the lesion areas (rat models of melasma [1]) | lesion area (rat models of melasma [1]) | inflammatory cell infiltration (rat models of melasma [2]) | thickness of the basal layer and stratum spinosum of the epidermal tissues (rat models of melasma [2]) | ET-1 content in the skin tissue homogenate (endothelin-1)
Cl.O=C(O)c1ccc2c(n1)CCNC2 [compound under test 1, 5,6,7,8-tetrahydro-1,6-naphthyridine-2-carboxylic acid hydrochloride] | distributed discontinuously only in the basal layer | significantly reduced | significantly reduced |  |  |  |  |  |  | 
Cl.O=P(O)(O)c1ccc2c(n1)CCNC2 [compound under test 2, (5,6,7,8-tetrahydro-1,6-naphthyridin-2-yl)phosphonic acid hydrochloride] |  |  |  | significantly different from those in the model group | significantly different from those in the model group |  |  |  |  | 
Cl.O=S(=O)(O)c1ccc2c(n1)CC(CCCc1ccccc1)NC2 (centres unmarked) [compound under test 3, 7-(3-phenylpropyl)-5,6,7,8-tetrahydro-1,6-naphthyridine-2-sulfonic acid hydrochloride] | distributed discontinuously only in the basal layer | significantly reduced | significantly reduced |  |  |  |  |  |  | 
NC[C@H]1CC[C@H](C(=O)O)CC1 [tranexamic acid, Tranexamic acid] |  | reduced |  |  |  | significantly lighter | significantly reduced | improved | significantly reduced | significantly reduced
